# Patent publication US20230381321A1, “CAMPTOTHECIN CONJUGATES” (priority 2022, published 2023)
# Test system: renal carcinoma cells (786-O)
# Assay: In vitro potency (CellTiter-Glo, 96 h) on 786-O
# Type: cell-based
# Details: Homo sapiens, 786-0, 96 h, CPT free drugs; CellTiter-Glo after 96 h exposure; read-out: 786-O IC50
# Summary of the method: (§1)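 Log-phase cells were seeded 24 h in RPMI 1640 with 20% FBS, then exposed to serially diluted […] for 96 h. Growth inhibition was measured by CellTiter-Glo luminescence.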
row,SMILES,IC50
1,CC[C@@]1(O)C(=O)OCc2c1cc1n(c2=O)Cc2c-1nc1cc3c(cc1c2CN)CC=C3 [Compound 5],16 nM
2,CC[C@@]1(O)C(=O)OCc2c1cc1n(c2=O)Cc2c-1nc1cc3c(cc1c2CN)CCS3 [Compound 2ar],26 nM
3,CC[C@@]1(O)C(=O)OCc2c1cc1n(c2=O)Cc2c-1nc1cc3c(c(F)c1c2CN)CCC3 [Compound 5b],69 nM
4,CC[C@@]1(O)C(=O)OCc2c1cc1n(c2=O)Cc2c-1nc1cc(F)cc(Br)c1c2CN [Compound 2aw],58 nM

# Test system: pancreatic cancer cells (BxPC3)
# Assay: In vitro potency (CellTiter-Glo, 96 h) on BxPC3
# Type: cell-based
# Details: Homo sapiens, BXPC-3, 96 h, CPT free drugs; CellTiter-Glo after 96 h exposure; read-out: BxPC3 IC50
# Summary of the method: as §1
row,SMILES,IC50
1,CC[C@@]1(O)C(=O)OCc2c1cc1n(c2=O)Cc2c-1nc1cc3c(cc1c2CN)CC=C3 [Compound 5],40 nM
2,CC[C@@]1(O)C(=O)OCc2c1cc1n(c2=O)Cc2c-1nc1cc3c(cc1c2CN)CCS3 [Compound 2ar],43 nM
3,CC[C@@]1(O)C(=O)OCc2c1cc1n(c2=O)Cc2c-1nc1cc3c(c(F)c1c2CN)CCC3 [Compound 5b],128 nM
4,CC[C@@]1(O)C(=O)OCc2c1cc1n(c2=O)Cc2c-1nc1cc(F)cc(Br)c1c2CN [Compound 2aw],149 nM

# Test system: anaplastic large cell lymphoma cells (DELBVR)
# Assay: In vitro potency (CellTiter-Glo, 96 h) on DELBVR
# Type: cell-based
# Details: 96 h, CPT free drugs; CellTiter-Glo after 96 h exposure; read-out: DELBVR IC50
# Summary of the method: as §1
row,SMILES,IC50
1,CC[C@@]1(O)C(=O)OCc2c1cc1n(c2=O)Cc2c-1nc1cc3c(cc1c2CN)CC=C3 [Compound 5],4 nM
2,CC[C@@]1(O)C(=O)OCc2c1cc1n(c2=O)Cc2c-1nc1cc3c(cc1c2CN)CCS3 [Compound 2ar],5 nM
3,CC[C@@]1(O)C(=O)OCc2c1cc1n(c2=O)Cc2c-1nc1cc3c(c(F)c1c2CN)CCC3 [Compound 5b],15 nM
4,CC[C@@]1(O)C(=O)OCc2c1cc1n(c2=O)Cc2c-1nc1cc(F)cc(Br)c1c2CN [Compound 2aw],15 nM

# Test system: B-lymphocyte cancer cells (SU-DHL4)
# Assay: In vitro potency (CellTiter-Glo, 96 h) on SU-DHL4
# Type: cell-based
# Details: Homo sapiens, SU-DHL-4, 96 h, CPT free drugs; CellTiter-Glo after 96 h exposure; read-out: SU-DHL-4 IC50
# Summary of the method: as §1
row,SMILES,IC50
1,CC[C@@]1(O)C(=O)OCc2c1cc1n(c2=O)Cc2c-1nc1cc3c(cc1c2CN)CC=C3 [Compound 5],7 nM
2,CC[C@@]1(O)C(=O)OCc2c1cc1n(c2=O)Cc2c-1nc1cc3c(cc1c2CN)CCS3 [Compound 2ar],13 nM
3,CC[C@@]1(O)C(=O)OCc2c1cc1n(c2=O)Cc2c-1nc1cc3c(c(F)c1c2CN)CCC3 [Compound 5b],27 nM
4,CC[C@@]1(O)C(=O)OCc2c1cc1n(c2=O)Cc2c-1nc1cc(F)cc(Br)c1c2CN [Compound 2aw],22 nM

# Test system: acute myeloid leukemia cells (MOLM-13)
# Assay: In vitro potency (CellTiter-Glo, 96 h) on MOLM-13
# Type: cell-based
# Details: Homo sapiens, MOLM-13, 96 h, CPT free drugs; CellTiter-Glo after 96 h exposure; read-out: MOLM-13 IC50
# Summary of the method: as §1
row,SMILES,IC50
1,CC[C@@]1(O)C(=O)OCc2c1cc1n(c2=O)Cc2c-1nc1cc3c(cc1c2CN)CCS3 [Compound 2ar],258 nM
2,CC[C@@]1(O)C(=O)OCc2c1cc1n(c2=O)Cc2c-1nc1cc3c(c(F)c1c2CN)CCC3 [Compound 5b],> 1000 nM
3,CC[C@@]1(O)C(=O)OCc2c1cc1n(c2=O)Cc2c-1nc1cc(F)cc(Br)c1c2CN [Compound 2aw],199 nM

# Same assay, conditions: Homo sapiens, MOLM-13, 96 h, read-out: MOLM-13 IC50
row,SMILES,IC50
1,CC[C@@]1(O)C(=O)OCc2c1cc1n(c2=O)Cc2c-1nc1cc3c(cc1c2CN)CC=C3 [Compound 5],258 nM

# Test system: anaplastic large cell lymphoma cells (Karpas299)
# Assay: In vitro potency (CellTiter-Glo, 96 h) on Karpas299
# Type: cell-based
# Details: Homo sapiens, KARPAS-299, 96 h, CPT free drugs; CellTiter-Glo after 96 h exposure; read-out: Karpas299 IC50
# Summary of the method: as §1
row,SMILES,IC50
1,CC[C@@]1(O)C(=O)OCc2c1cc1n(c2=O)Cc2c-1nc1cc3c(cc1c2CN)CC=C3 [Compound 5],10 nM
2,CC[C@@]1(O)C(=O)OCc2c1cc1n(c2=O)Cc2c-1nc1cc3c(cc1c2CN)CCS3 [Compound 2ar],29 nM
3,CC[C@@]1(O)C(=O)OCc2c1cc1n(c2=O)Cc2c-1nc1cc3c(c(F)c1c2CN)CCC3 [Compound 5b],46 nM
4,CC[C@@]1(O)C(=O)OCc2c1cc1n(c2=O)Cc2c-1nc1cc(F)cc(Br)c1c2CN [Compound 2aw],36 nM

# Test system: breast cancer cells (MDA-MB-231)
# Assay: In vitro potency (CellTiter-Glo, 96 h) on MDA-MB-231
# Type: cell-based
# Details: Homo sapiens, MDA-MB-231, 96 h, CPT free drugs; CellTiter-Glo after 96 h exposure; read-out: MDAMB 231 IC50
# Summary of the method: as §1
row,SMILES,IC50
1,CC[C@@]1(O)C(=O)OCc2c1cc1n(c2=O)Cc2c-1nc1cc3c(cc1c2CN)CC=C3 [Compound 5],218 nM
2,CC[C@@]1(O)C(=O)OCc2c1cc1n(c2=O)Cc2c-1nc1cc3c(cc1c2CN)CCS3 [Compound 2ar],14 nM
3,CC[C@@]1(O)C(=O)OCc2c1cc1n(c2=O)Cc2c-1nc1cc3c(c(F)c1c2CN)CCC3 [Compound 5b],36 nM
4,CC[C@@]1(O)C(=O)OCc2c1cc1n(c2=O)Cc2c-1nc1cc(F)cc(Br)c1c2CN [Compound 2aw],456 nM

# Test system: anaplastic large cell lymphoma cells (DEL)
# Assay: In vitro potency (CellTiter-Glo, 96 h) on DEL
# Type: cell-based
# Details: 96 h, CPT free drugs; CellTiter-Glo after 96 h exposure; read-out: DEL IC50
# Summary of the method: as §1
row,SMILES,IC50
1,CC[C@@]1(O)C(=O)OCc2c1cc1n(c2=O)Cc2c-1nc1cc3c(cc1c2CN)CC=C3 [Compound 5],4 nM
2,CC[C@@]1(O)C(=O)OCc2c1cc1n(c2=O)Cc2c-1nc1cc3c(cc1c2CN)CCS3 [Compound 2ar],7 nM
3,CC[C@@]1(O)C(=O)OCc2c1cc1n(c2=O)Cc2c-1nc1cc3c(c(F)c1c2CN)CCC3 [Compound 5b],17 nM
4,CC[C@@]1(O)C(=O)OCc2c1cc1n(c2=O)Cc2c-1nc1cc(F)cc(Br)c1c2CN [Compound 2aw],15 nM

# Test system: melanoma cells (A2058)
# Assay: In vitro potency (CellTiter-Glo, 96 h) on A2058
# Type: cell-based
# Details: Homo sapiens, A2058, 96 h, CPT free drugs; CellTiter-Glo after 96 h exposure; read-out: A2058 IC50
# Procedure: (§2) In vitro potency was assessed on multiple cancer cell lines. All cell lines were authenticated by STR profiling at IDEXX Bioresearch and cultured for no more than 2 months after resuscitation. Cells cultured in log-phase growth were seeded for 24 hours in 96-well plates containing […] RPMI 1640 supplemented with 20% FBS. Serial dilutions of antibody-drug conjugates in cell culture media were prepared at 4x working concentrations, and 50 μL of each dilution was added to the 96-well plates. Following addition of test articles, cells were incubated with test articles for 4 days at […]. After 96 hours, growth inhibition was assessed by CellTiterGlo® (Promega, Madison, WI) and luminescence was measured on a plate reader.
# (§3) Cell viability was determined by CellTiter-Glo staining after 96h exposure to ADC. ND=Not Determined. In the following tables, “Ex_” refers to a drug linker number. For example, “Ag4-Ex_4a” refers to a conjugate of an Ag4 antibody with drug linker 4a.
row,SMILES,IC50
1,CC[C@@]1(O)C(=O)OCc2c1cc1n(c2=O)Cc2c-1nc1cc3c(cc1c2CN)CC=C3 [Compound 5],7 nM
2,CC[C@@]1(O)C(=O)OCc2c1cc1n(c2=O)Cc2c-1nc1cc3c(cc1c2CN)CCS3 [Compound 2ar],7 nM
3,CC[C@@]1(O)C(=O)OCc2c1cc1n(c2=O)Cc2c-1nc1cc3c(c(F)c1c2CN)CCC3 [Compound 5b],17 nM
4,CC[C@@]1(O)C(=O)OCc2c1cc1n(c2=O)Cc2c-1nc1cc(F)cc(Br)c1c2CN [Compound 2aw],18 nM

# Test system: not listed separately
# Assay: In vitro potency (CellTiter-Glo, 96 h) on Ls174T
# Type: cell-based
# Details: Homo sapiens, LS174T; CPT free drugs; CellTiter-Glo after 96 h exposure; read-out: Ls174T IC50
# Summary of the method: as §1
row,SMILES,IC50
1,CC[C@@]1(O)C(=O)OCc2c1cc1n(c2=O)Cc2c-1nc1cc3c(cc1c2CN)CC=C3 [Compound 5],> 1000 nM
2,CC[C@@]1(O)C(=O)OCc2c1cc1n(c2=O)Cc2c-1nc1cc3c(cc1c2CN)CCS3 [Compound 2ar],14 nM
3,CC[C@@]1(O)C(=O)OCc2c1cc1n(c2=O)Cc2c-1nc1cc3c(c(F)c1c2CN)CCC3 [Compound 5b],45 nM
4,CC[C@@]1(O)C(=O)OCc2c1cc1n(c2=O)Cc2c-1nc1cc(F)cc(Br)c1c2CN [Compound 2aw],> 1000 nM

# Test system: Hodgkin's lymphoma cells (L540cy)
# Assay: In vitro potency (CellTiter-Glo, 96 h) on L540cy
# Type: cell-based
# Details: L540cy, 96 h, CPT free drugs; CellTiter-Glo after 96 h exposure; read-out: L540cy IC50
# Summary of the method: as §1
row,SMILES,IC50
1,CC[C@@]1(O)C(=O)OCc2c1cc1n(c2=O)Cc2c-1nc1cc3c(cc1c2CN)CC=C3 [Compound 5],9 nM
2,CC[C@@]1(O)C(=O)OCc2c1cc1n(c2=O)Cc2c-1nc1cc3c(cc1c2CN)CCS3 [Compound 2ar],4 nM
3,CC[C@@]1(O)C(=O)OCc2c1cc1n(c2=O)Cc2c-1nc1cc3c(c(F)c1c2CN)CCC3 [Compound 5b],10 nM
4,CC[C@@]1(O)C(=O)OCc2c1cc1n(c2=O)Cc2c-1nc1cc(F)cc(Br)c1c2CN [Compound 2aw],25 nM

# Test system: non-small-cell lung cancer cells (Calu1)
# Assay: In vitro potency (CellTiter-Glo, 96 h) on Calu1
# Type: cell-based
# Details: Homo sapiens, Calu-1, 96 h, CPT free drugs; CellTiter-Glo after 96 h exposure; read-out: Calu1 IC50
# Procedure: as §2, §3
row,SMILES,IC50
1,CC[C@@]1(O)C(=O)OCc2c1cc1n(c2=O)Cc2c-1nc1cc3c(cc1c2CN)CCS3 [Compound 2ar],26 nM
2,CC[C@@]1(O)C(=O)OCc2c1cc1n(c2=O)Cc2c-1nc1cc3c(c(F)c1c2CN)CCC3 [Compound 5b],54 nM
3,CC[C@@]1(O)C(=O)OCc2c1cc1n(c2=O)Cc2c-1nc1cc(F)cc(Br)c1c2CN [Compound 2aw],269 nM

# Same assay, conditions: Homo sapiens, Calu-1, 96 h, read-out: Calu1 IC50
row,SMILES,IC50
1,CC[C@@]1(O)C(=O)OCc2c1cc1n(c2=O)Cc2c-1nc1cc3c(cc1c2CN)CC=C3 [Compound 5],129 nM
